According to ChEMBL document CHEMBL5518230, “Identification of a Novel Selective CDK9 Inhibitor for the Treatment of CRC: Design, Synthesis, and Biological Activity Evaluation” (J Med Chem, 2024):
Activity calls are given as the source filed them. The calls are words filed in the database; no cut-off is given here.

What was measured:
[1] = MRT (0 to infinity) in Sprague-Dawley rat at 2 mg/kg,iv administration measured for 0.25 to 24 hrs by LC-MS/MS analysis; assay type: ADME, organism-based; details: in vivo, time 0.25-24 hrs
[2] = tested on: HT-29; assay: Growth inhibition of human HT-29 cells incubated for 48 hrs by CCK-8 assay; assay type: functional
[3] = molecular target: Cyclin-dependent kinase 9 (Homo sapiens, UniProt P50750); assay: Inhibition of CDK9 (unknown origin)
[4] = Half life in human liver microsomes at 100 uM measured upto 60 mins in presence of NADPH by LC-MS/MS analysis; assay type: ADME, Microsome
[5] = molecular target: T1, CYP1A2 (Homo sapiens, UniProt P05177); assay: Inhibition of CYP1A2 in human liver microsomes using alpha-naphthoflavone as […] at 10 uM preincubated for 10 mins followed by NADPH addition measured after 15 mins by LC-MS/MS analysis relative to control; assay type: ADME, Microsome; details: time 25 min
T1 sequence (P05177 whole entry): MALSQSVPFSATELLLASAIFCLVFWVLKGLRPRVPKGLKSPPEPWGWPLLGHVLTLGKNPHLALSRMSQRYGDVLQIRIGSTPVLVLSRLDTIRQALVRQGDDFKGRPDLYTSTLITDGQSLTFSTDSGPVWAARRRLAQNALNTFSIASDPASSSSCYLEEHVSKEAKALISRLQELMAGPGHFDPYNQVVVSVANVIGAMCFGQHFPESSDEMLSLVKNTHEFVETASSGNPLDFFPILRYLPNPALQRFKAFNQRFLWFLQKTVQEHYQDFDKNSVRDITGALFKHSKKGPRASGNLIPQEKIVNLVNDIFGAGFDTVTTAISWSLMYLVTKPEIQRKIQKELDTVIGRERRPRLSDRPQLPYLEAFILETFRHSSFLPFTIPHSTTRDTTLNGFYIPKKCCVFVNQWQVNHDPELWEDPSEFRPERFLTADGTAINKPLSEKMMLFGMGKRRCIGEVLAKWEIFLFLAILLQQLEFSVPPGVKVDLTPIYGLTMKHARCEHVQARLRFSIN

[6] = Selectivity index, ratio of GI50 for growth inhibition of human SW480 cells to GI50 for growth inhibition of human HCT-116 cells; assay type: functional
[7] = Tmax in Sprague-Dawley rat at 2 mg/kg,iv administration measured for 0.25 to 24 hrs by LC-MS/MS analysis; assay type: ADME, organism-based; details: in vivo, time 0.25-24 hrs
[8] = AUC (0 to t) in Sprague-Dawley rat at 2 mg/kg,iv administration measured for 0.25 to 24 hrs by LC-MS/MS analysis; assay type: ADME, organism-based; details: in vivo, time 0.25-24 hrs
[9] = AUC (0 to infinity) in Sprague-Dawley rat at 2 mg/kg,iv administration measured for 0.25 to 24 hrs by LC-MS/MS analysis; assay type: ADME, organism-based; details: in vivo, time 0.25-24 hrs
[10] = Clearance in Sprague-Dawley rat at 2 mg/kg,iv administration measured for 0.25 to 24 hrs by LC-MS/MS analysis; assay type: ADME, organism-based; details: in vivo, time 0.25-24 hrs
[11] = AUC (0 to t) in Sprague-Dawley rat at 10 mg/kg,po administration measured for 0.25 to 24 hrs by LC-MS/MS analysis; assay type: ADME, organism-based; details: in vivo, time 0.25-24 hrs
[12] = molecular target: Glycogen synthase kinase-3 beta (Homo sapiens) (UniProt P49841); assay: Inhibition of human GSK3beta at 100 nM by kinase profiling assay relative to control
[13] = molecular target: Serine/threonine-protein kinase PAK 4 (Homo sapiens) (UniProt O96013); assay: Inhibition of human PAK4 at 100 nM by kinase profiling assay relative to control
[14] = molecular target: Activin receptor type-1B (Homo sapiens) (UniProt P36896); assay: Inhibition of human ALK4 at 100 nM by kinase profiling assay relative to control
[15] = molecular target: Serine/threonine-protein kinase PLK2 (Homo sapiens) (UniProt Q9NYY3); assay: Inhibition of human PLK2 at 100 nM by kinase profiling assay relative to control
[16] = molecular target: Inhibitor of nuclear factor kappa-B kinase subunit alpha (Homo sapiens) (UniProt O15111); assay: Inhibition of human IKKalpha at 100 nM by kinase profiling assay relative to control
[17] = molecular target: Rho-associated protein kinase 1 (Homo sapiens) (UniProt Q13464); assay: Inhibition of human ROCK1 at 100 nM by kinase profiling assay relative to control
[18] = molecular target: Protein kinase C alpha type (Homo sapiens) (UniProt P17252); assay: Inhibition of human PKCalpha at 100 nM by kinase profiling assay relative to control
[19] = tested on: HCT-116; assay: Induction of apoptosis in human HCT-116 cells assessed as increase in caspase-3 activity incubated for 48 hrs by GreenNuc substrate based flow cytometric analysis; assay type: functional, cell-based
[20] = tested on: HCT-116; assay: Induction of apoptosis in human HCT-116 cells assessed as downregulation of RNA polymerase II phosphorylation at Ser2 residue at 25 to 400 nM incubated for 48 hrs by Western blotting analysis; assay type: functional, cell-based; details: dose 25-400 nM
[21] = tested on: HCT-116; assay: Induction of apoptosis in human HCT-116 cells assessed as downregulation of c-Myc mRNA expression at 25 to 400 nM incubated for 48 hrs by qRT-PCR analysis; assay type: functional, cell-based; details: dose 25-400 nM
[22] = tested on: HCT-116; assay: Antitumor activity against human HCT-116 cells xenografted in BALB/c mouse assessed as tumor growth inhibition at po administrated once daily for 3 weeks; assay type: functional, organism-based
[23] = Toxicity in BALB/c mouse xenografted with human HCT-116 cells assessed as body weight loss at 25 mg/kg,po administrated once daily for 3 weeks; assay type: organism-based; details: in vivo, 504 h
[24] = tested on: HCT-116; assay: Antitumor activity against human HCT-116 cells xenografted in BALB/c mouse assessed as downregulation of RNA polymerase II phosphorylation at 25 mg/kg,po administrated once daily for 3 weeks by Western blotting analysis; assay type: functional, organism-based
[25] = tested on: HCT-116; assay: Antitumor activity against human HCT-116 cells xenografted in BALB/c mouse assessed as downregulation of Mcl-1 expression at 50 mg/kg,po administrated once daily for 3 weeks by Western blotting analysis; assay type: functional, organism-based
[26] = tested on: HCT-116; assay: Antitumor activity against human HCT-116 cells xenografted in BALB/c mouse assessed as downregulation of PARP expression at 25 mg/kg,po administrated once daily for 3 weeks by Western blotting analysis; assay type: functional, organism-based
[27] = Toxicity in BALB/c mouse xenografted with human HCT-116 cells assessed as heart morphological change at 50 mg/kg,po administrated once daily for 3 weeks by hematoxylin and eosin staining based microscopic analysis; assay type: organism-based; details: in vivo, 504 h
[28] = Toxicity in BALB/c mouse xenografted with human HCT-116 cells assessed as liver morphological change at 50 mg/kg,po administrated once daily for 3 weeks by hematoxylin and eosin staining based microscopic analysis; assay type: organism-based; details: in vivo, 504 h
[29] = Toxicity in BALB/c mouse xenografted with human HCT-116 cells assessed as lung morphological change at 25 mg/kg,po administrated once daily for 3 weeks by hematoxylin and eosin staining based microscopic analysis; assay type: organism-based; details: in vivo, 504 h
[30] = Toxicity in BALB/c mouse xenografted with human HCT-116 cells assessed as kidney morphological change at 25 mg/kg,po administrated once daily for 3 weeks by hematoxylin and eosin staining based microscopic analysis; assay type: organism-based; details: in vivo, 504 h
[31] = Toxicity in BALB/c mouse xenografted with human HCT-116 cells assessed as kidney morphological change at 50 mg/kg,po administrated once daily for 3 weeks by hematoxylin and eosin staining based microscopic analysis; assay type: organism-based; details: in vivo, 504 h

Glycogen synthase kinase-3 beta (Homo sapiens), sequence (P49841 whole entry, looked up): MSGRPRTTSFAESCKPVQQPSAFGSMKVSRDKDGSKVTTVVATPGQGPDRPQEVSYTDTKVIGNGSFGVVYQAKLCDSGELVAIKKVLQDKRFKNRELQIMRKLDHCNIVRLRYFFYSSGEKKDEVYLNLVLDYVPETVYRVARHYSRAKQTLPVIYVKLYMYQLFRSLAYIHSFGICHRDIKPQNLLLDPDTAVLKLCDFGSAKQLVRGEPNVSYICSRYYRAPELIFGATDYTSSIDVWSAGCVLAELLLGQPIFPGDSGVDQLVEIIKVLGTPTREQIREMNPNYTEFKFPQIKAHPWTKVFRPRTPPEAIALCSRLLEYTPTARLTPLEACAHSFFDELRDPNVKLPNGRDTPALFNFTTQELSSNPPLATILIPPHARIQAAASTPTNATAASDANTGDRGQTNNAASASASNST
Serine/threonine-protein kinase PAK 4 (Homo sapiens), sequence (O96013 whole entry, looked up): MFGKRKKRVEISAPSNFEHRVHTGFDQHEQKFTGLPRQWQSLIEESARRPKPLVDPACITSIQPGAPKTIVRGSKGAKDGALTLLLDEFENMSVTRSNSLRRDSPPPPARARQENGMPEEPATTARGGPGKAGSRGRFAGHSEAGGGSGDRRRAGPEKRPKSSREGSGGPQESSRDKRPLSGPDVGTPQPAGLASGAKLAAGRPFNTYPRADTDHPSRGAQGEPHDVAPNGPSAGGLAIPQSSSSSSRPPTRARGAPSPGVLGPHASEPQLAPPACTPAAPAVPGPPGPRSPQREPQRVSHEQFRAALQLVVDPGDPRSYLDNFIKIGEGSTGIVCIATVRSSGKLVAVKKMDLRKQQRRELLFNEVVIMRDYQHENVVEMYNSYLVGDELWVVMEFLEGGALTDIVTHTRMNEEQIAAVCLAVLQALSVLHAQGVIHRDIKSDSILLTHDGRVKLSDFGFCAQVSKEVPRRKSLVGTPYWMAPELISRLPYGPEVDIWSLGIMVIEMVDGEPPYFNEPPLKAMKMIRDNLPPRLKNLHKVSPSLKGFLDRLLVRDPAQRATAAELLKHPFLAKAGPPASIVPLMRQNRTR
Serine/threonine-protein kinase PLK2 (Homo sapiens), sequence (Q9NYY3 whole entry, looked up): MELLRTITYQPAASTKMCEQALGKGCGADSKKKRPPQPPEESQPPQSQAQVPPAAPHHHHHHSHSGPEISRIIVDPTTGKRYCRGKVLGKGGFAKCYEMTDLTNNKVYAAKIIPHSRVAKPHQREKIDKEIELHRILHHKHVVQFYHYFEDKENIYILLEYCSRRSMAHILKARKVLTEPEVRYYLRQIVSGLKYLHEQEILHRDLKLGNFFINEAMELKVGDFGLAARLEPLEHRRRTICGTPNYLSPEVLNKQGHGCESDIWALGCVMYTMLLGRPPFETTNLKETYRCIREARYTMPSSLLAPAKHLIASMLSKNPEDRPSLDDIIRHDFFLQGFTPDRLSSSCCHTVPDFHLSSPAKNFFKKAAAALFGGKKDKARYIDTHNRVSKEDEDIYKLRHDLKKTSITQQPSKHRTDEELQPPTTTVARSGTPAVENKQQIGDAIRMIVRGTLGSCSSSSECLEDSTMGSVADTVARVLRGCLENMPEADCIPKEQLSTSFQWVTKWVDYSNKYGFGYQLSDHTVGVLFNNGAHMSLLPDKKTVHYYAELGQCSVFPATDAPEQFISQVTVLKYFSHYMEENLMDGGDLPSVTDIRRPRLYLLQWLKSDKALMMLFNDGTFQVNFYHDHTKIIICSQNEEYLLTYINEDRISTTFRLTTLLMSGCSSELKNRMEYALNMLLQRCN
Inhibitor of nuclear factor kappa-B kinase subunit alpha (Homo sapiens), sequence (O15111 whole entry): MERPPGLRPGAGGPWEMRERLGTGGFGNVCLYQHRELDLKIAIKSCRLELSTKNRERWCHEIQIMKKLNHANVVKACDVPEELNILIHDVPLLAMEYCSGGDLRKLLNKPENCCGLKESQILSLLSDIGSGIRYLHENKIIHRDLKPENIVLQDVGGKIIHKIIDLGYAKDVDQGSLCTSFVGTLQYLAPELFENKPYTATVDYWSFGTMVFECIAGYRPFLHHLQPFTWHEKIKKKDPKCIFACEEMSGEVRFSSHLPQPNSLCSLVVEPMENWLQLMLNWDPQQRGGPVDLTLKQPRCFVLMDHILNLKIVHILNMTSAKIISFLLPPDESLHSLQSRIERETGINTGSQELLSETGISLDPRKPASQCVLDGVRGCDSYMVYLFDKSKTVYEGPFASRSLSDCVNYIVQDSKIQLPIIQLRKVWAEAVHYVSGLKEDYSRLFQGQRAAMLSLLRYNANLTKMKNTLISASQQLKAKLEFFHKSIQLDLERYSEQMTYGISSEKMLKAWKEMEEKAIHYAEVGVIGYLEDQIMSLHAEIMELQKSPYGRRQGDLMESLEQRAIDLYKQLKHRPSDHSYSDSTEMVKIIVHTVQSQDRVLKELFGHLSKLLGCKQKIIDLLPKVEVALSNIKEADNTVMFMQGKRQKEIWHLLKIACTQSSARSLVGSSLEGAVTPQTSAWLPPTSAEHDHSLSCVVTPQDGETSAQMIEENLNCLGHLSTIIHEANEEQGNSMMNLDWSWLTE
Rho-associated protein kinase 1 (Homo sapiens), sequence (Q13464 2-1354 limits assumed): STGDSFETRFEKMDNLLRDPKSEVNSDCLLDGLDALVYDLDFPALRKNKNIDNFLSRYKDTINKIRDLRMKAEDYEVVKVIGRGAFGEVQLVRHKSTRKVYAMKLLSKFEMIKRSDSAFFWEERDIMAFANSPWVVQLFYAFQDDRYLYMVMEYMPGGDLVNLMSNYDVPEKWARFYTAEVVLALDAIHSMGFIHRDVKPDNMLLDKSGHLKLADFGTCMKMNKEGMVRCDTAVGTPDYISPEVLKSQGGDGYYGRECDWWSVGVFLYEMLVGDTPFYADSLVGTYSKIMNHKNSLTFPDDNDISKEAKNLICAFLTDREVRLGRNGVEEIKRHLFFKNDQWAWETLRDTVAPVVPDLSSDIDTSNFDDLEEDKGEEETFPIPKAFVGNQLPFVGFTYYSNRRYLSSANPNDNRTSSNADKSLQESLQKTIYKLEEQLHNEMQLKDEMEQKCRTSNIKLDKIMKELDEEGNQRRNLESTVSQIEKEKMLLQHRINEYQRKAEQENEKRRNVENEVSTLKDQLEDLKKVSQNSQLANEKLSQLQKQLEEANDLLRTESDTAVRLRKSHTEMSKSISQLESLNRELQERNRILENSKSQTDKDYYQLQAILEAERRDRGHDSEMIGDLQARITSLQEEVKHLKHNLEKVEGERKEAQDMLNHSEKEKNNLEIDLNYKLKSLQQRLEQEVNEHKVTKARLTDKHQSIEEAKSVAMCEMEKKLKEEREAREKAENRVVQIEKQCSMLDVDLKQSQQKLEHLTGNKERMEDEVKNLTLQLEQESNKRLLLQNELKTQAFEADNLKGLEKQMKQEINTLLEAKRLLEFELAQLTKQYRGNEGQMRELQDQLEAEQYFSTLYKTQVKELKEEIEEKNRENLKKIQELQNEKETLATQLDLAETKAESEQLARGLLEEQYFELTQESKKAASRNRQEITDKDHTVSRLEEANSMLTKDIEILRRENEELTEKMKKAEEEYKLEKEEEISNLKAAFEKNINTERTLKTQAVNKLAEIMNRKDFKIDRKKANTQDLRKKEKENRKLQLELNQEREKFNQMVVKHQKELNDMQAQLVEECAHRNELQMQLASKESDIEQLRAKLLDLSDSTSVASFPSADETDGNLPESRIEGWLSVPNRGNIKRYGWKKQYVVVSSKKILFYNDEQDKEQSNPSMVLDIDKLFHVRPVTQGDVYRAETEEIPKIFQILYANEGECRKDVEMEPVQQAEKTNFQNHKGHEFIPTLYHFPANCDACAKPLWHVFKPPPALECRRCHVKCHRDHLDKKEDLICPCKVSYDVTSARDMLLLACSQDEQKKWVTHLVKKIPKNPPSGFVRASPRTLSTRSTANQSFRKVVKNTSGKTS
Cyclin-dependent kinase 9, sequence (P50750 whole entry): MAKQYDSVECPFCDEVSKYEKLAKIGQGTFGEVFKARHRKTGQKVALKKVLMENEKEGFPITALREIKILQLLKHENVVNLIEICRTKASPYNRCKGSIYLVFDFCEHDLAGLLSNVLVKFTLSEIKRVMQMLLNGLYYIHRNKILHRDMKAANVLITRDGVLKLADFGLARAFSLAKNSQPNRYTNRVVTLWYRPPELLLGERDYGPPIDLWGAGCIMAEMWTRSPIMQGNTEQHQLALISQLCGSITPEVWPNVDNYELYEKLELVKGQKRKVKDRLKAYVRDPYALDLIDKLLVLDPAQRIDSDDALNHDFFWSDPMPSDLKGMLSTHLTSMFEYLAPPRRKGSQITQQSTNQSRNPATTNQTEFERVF

- MRT inf [1]: 106 min
- GI50 [2]: 560 nM
- IC50 [3]: 2.9 nM
- half-life at 100 µM [4]: 25.2 min
- inhibition at 0.25 h, 10 µM [5]: 34.6%
- Tmax [7]: 4.98 min
- AUC(0-t) [8]: 361 ng·h/mL
- AUC(0-inf) [9]: 373 ng·h/mL
- clearance [10]: 89.8 mL/min/kg
- AUC(0-t) [11]: 168 ng·h/mL
- inhibition [12]: < 50%
- inhibition [13]: < 50%
- inhibition [14]: < 50%
- inhibition [15]: < 50%
- inhibition [16]: < 50%
- inhibition [17]: < 50%
- inhibition [18]: < 50%
Structure (SMILES): CC(C)n1nnc2ccc(-c3ccnc(Nc4cc(C(=O)N5CCCN(C)CC5)ccn4)c3)cc21
- RatioGI50 [6]: 92.97
- Activity [19]: Dose-Dependent Effect
- Activity [20]: Active
- Activity [21]: Active
- Activity [22]: Dose-Dependent Effect
- Activity [23]: Non-Toxic
- Activity [24]: Active
- Activity [25]: Active
- Activity [26]: Active
- Activity [27]: Non-Toxic
- Activity [28]: Non-Toxic
- Activity [29]: Non-Toxic
- Activity [30]: Non-Toxic
- Activity [31]: Non-Toxic
